# Reference: patent US20240190883A1, “KRAS PROTEIN DEGRADERS, PHARMACEUTICAL COMPOSITIONS THEREOF, AND THEIR THERAPEUTIC APPLICATIONS” (BioTheryX, Inc., priority 2021, published 2024)
# What was measured:
# Assay type in all cases: cell-based
# KRAS protein [1] = target: T1, KRAS protein (Homo sapiens, UniProt P01116); test: HIBIT degradation assay, HEK293 cells; settings: 24 h, HiBiT signal normalized to CTG signal; for Effect on KRAS Protein Degradation, HEK293, 3 μM: compound at 3 μM; for Effect on KRAS Protein Degradation, HEK293, 5 μM: compound at 5 μM
# T1 construct: engineered to express a Hobbit-tagged endogenous KRAS protein; endogenous in cells; host or cells: HEK293, endogenous KRAS locus engineered with a HiBiT tag
# Method: (§1) HEK293, MIA PaCa-2, AsPc-1, SW620, and H647 cells were engineered to express a […] endogenous KRAS protein. The HEK293 and MIA PaCa-2 cells were cultured in DMEM media supplemented with 10% fetal bovine serum, streptomycin, and penicillin. The AsPc-1, SW620, and H647 were cultured in RPMI media supplemented with 10% fetal bovine serum, streptomycin, and penicillin. The cells were seeded in white walled 96-well plates at 20,000 cells/well in 100 μL culture media in duplicate plates. After incubated at 37° C. under 5% CO2 overnight, the cells were treated with DMSO (control) or a compound, followed by the addition of 100 μL culture media to each well. After the cells were incubated for 24 h at 37° C. under 5% C02, 150 μL media were removed from each well and 50 μL NANOGLO-LGBIT lytic reagent were added to each well, and 50 μL CELLTITER-GLO (CTG) reagent was added to the duplicate plate. Following a 10-minute incubation with shaking, luminescence was measured using a Perkin Elmer ENVISION multimode plate reader. HiBiT signal was normalized to CTG signal. The results are summarized in Table 3, where “A” represents a percentage degradation value of no less than 50%; “B” represents a percentage degradation value of less than 50% and no less than 25%; “C” represents a percentage degradation value of less than 25% and no less than 10%; and “D” represents a percentage degradation value of less than 10%.
# Molm-13 cells = test: Cell viability assay, inhibition of Molm-13 cells; settings: Homo sapiens; for inhibition at 1 µM: compound at 1 μM; for inhibition at 3 µM: compound at 3 μM
# Method: [Worded in the source for another cell line; this cell line is reported under the same test.] (§2) H358, H23, SW48, and AsPC-1 cells were cultured in RPMI 1640 media supplemented with 10% fetal bovine serum, streptomycin, and penicillin. Lovo and SW480 cells were cultured in DMEM media supplemented with 10% fetal bovine serum, streptomycin, and penicillin. The cell lines were plated in their respective medium supplemented with 2.5% fetal bovine serum, streptomycin, and penicillin. All cell lines were plated in white walled 96-well plates at 2,000 cells/well or 384-well plates at 500 cells/well, except Lovo, which were plated at 4,000 or 1,000 cells/well, respectively. The cells were incubated in DMSO (control) or a compound for 3 days at 37° C. under 5% C02. A CELLTITER-GLO® reagent (100 μL) was then added to each well. After a 10 min incubation with shaking, luminescence was measured using an ENVISION® multimode plate reader. IC50 values are summarized in Table 1 and percentages of inhibition are summarized in Table 2, where compound T1 is 2-(4-(2-methyl-3,5-diphenylpyrazolo[1,5-a]pyrimidin-7-yl)piperazin-1-yl)ethan-1-ol.
# KRAS protein [2] = target: T2, KRAS protein (Homo sapiens, UniProt P01116, G13D); test: HIBIT degradation assay, H647 cells; settings: 24 h, HiBiT signal normalized to CTG signal; for Effect on KRAS Protein Degradation, H647, 3 μM: compound at 3 μM; for Effect on KRAS Protein Degradation, H647, 5 μM: compound at 5 μM
# T2 construct: engineered to express a Hobbit-tagged endogenous KRAS protein; endogenous in cells; host or cells: H647, endogenous KRAS locus engineered with a HiBiT tag
# Method: as §1
# KRAS protein [3] = target: T3, KRAS protein (Homo sapiens, UniProt P01116, G12D); test: HIBIT degradation assay, AsPC-1 cells; settings: 24 h, HiBiT signal normalized to CTG signal; for Effect on KRAS Protein Degradation, AsPC-1, 3 μM: compound at 3 μM; for Effect on KRAS Protein Degradation, AsPC-1, 5 μM: compound at 5 μM
# T3 construct: engineered to express a Hobbit-tagged endogenous KRAS protein; endogenous in cells; host or cells: AsPC-1, endogenous KRAS locus engineered with a HiBiT tag
# Method: as §1
# H358 (G12C) cells = test: Cell viability assay (CELLTITER-GLO), H358 cells; settings: Homo sapiens, NCI-H358, 72 h, 3 days incubation, 2.5% fetal bovine serum, read-out: Inhibition of Cancerous Cells IC50 (μM) H358 (G12C)
# Method: as §2
# H23 cells = test: Cell viability assay (CELLTITER-GLO), H23 cells; settings: Homo sapiens, NCI-H23, 72 h, 3 days incubation, 2.5% fetal bovine serum, read-out: Inhibition of Cancerous Cells IC50 (μM) H23
# Method: as §2
# SW48 (wt) cells = test: Cell viability assay (CELLTITER-GLO), SW48 cells; settings: Homo sapiens, 72 h, 3 days incubation, 2.5% fetal bovine serum, read-out: Inhibition of Cancerous Cells IC50 (μM) SW48 (wt)
# Method: as §2
# Lovo (G13D) cells = test: Cell viability assay (CELLTITER-GLO), Lovo cells; settings: Homo sapiens, 72 h, 3 days incubation, 2.5% fetal bovine serum, read-out: Inhibition of Cancerous Cells IC50 (μM) Lovo (G13D)
# Method: as §2
# SW480 (G12V) cells = test: Cell viability assay (CELLTITER-GLO), SW480 cells; settings: Homo sapiens, 72 h, 3 days incubation, 2.5% fetal bovine serum, read-out: Inhibition of Cancerous Cells IC50 (μM) SW480 (G12V)
# Method: as §2
# KRAS protein [4] = target: T4, KRAS protein (Homo sapiens, UniProt P01116, G12C); test: HIBIT degradation assay, MIA PaCa-2 cells; settings: 24 h, HiBiT signal normalized to CTG signal
# T4 construct: engineered to express a Hobbit-tagged endogenous KRAS protein; endogenous in cells; host or cells: MIA PaCa-2, endogenous KRAS locus engineered with a HiBiT tag
# Method: as §1
# T2 sequence (P01116 1-185 isoform P01116-2 G13D limits assumed): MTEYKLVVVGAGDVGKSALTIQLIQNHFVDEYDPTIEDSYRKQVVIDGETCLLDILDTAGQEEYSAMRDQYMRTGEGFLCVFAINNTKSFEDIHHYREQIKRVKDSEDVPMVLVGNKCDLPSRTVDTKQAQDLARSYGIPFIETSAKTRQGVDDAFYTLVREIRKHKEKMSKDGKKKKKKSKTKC
# T3 sequence (P01116 1-188 isoform P01116-2 G12D): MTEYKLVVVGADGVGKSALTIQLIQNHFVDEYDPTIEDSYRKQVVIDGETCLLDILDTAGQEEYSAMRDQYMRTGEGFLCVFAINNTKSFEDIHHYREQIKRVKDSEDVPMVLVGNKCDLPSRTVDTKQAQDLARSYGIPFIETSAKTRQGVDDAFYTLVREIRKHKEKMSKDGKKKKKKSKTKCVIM
# T1 sequence (P01116 1-188 isoform P01116-2): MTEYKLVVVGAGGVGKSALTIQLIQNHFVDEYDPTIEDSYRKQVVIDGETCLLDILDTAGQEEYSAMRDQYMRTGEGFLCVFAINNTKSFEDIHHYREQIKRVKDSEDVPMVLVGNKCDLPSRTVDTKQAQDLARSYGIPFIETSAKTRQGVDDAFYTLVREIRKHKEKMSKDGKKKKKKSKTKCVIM
# T4 sequence (P01116 whole entry G12C): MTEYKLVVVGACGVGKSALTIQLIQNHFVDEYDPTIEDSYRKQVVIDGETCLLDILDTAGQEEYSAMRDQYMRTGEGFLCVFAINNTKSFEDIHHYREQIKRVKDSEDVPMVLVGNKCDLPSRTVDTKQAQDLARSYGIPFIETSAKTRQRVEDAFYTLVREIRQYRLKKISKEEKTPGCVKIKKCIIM
Structure (SMILES),"Effect on KRAS Protein Degradation, HEK293, 3 μM (KRAS protein [1])",inhibition at 1 µM (Molm-13 cells) [%],inhibition at 3 µM (Molm-13 cells) [%],"Effect on KRAS Protein Degradation, H647, 3 μM (KRAS protein [2])","Effect on KRAS Protein Degradation, AsPC-1, 3 μM (KRAS protein [3])","Effect on KRAS Protein Degradation, AsPC-1, 5 μM (KRAS protein [3])",IC50 (H358 (G12C) cells) [µM],IC50 (H23 cells) [µM],IC50 (SW48 (wt) cells) [µM],IC50 (Lovo (G13D) cells) [µM],IC50 (SW480 (G12V) cells) [µM],further results
"Cc1nn2c(N3CCN(CCO)CC3)cc(-c3ccccc3)nc2c1-c1cccc(CCCCCN2CCN(C(=O)CNc3cccc4c(N5CCC(=O)NC5=O)nn(C)c34)CC2)c1 [Compound D17, 1-(7-((2-(4-(5-(3-(7-(4-(2-hydroxyethyl)piperazin-1-yl)-2-methyl-5-phenyl-pyrazolo[1,5-a]pyrimidin-3-yl)phenyl)pentyl)piperazin-1-yl)-2-oxoethyl)amino)-1-methyl-1H-indazol-3-yl)dihydropyrimidine-2,4(1H,3H)-dione]",C (a percentage degradation value of less than 25% and no less than 10%),34,99,C (a percentage degradation value of less than 25% and no less than 10%),B (a percentage degradation value of less than 50% and no less than 25%),C (a percentage degradation value of less than 25% and no less than 10%),–,–,–,–,–,"Effect on KRAS Protein Degradation, HEK293, 5 μM (KRAS protein [1]): C (a percentage degradation value of less than 25% and no less than 10%)"
"Cc1nn2c(N3CCN(CCO)CC3)cc(-c3cccc(CCCCCCCN4CCC(Nc5cccc(NC6CCC(=O)NC6=O)c5)CC4)c3)nc2c1-c1ccccc1 (stereo not drawn) [Compound A1, 3-((3-((1-(7-(3-(7-(4-(2-Hydroxyethyl)piperazin-1-yl)-2-methyl-3-phenyl-pyrazolo[1,5-a]pyrimidin-5-yl)phenyl)heptyl)piperidin-4-yl)amino)phenyl)amino)piperidine-2,6-dione]",–,–,–,–,–,–,0.9,0.81,0.54,0.43,0.4,–
"Cc1nn2c(N3CCN(CCO)CC3)cc(-c3ccccc3)nc2c1-c1ccccc1 [Compound T1, 2-(4-(2-methyl-3,5-diphenylpyrazolo[1,5-a]pyrimidin-7-yl)piperazin-1-yl)ethan-1-ol, reference compound]",–,0,–,–,–,–,2.4,2.5,1.9,1.3,0.7,inhibition at 10 µM (Molm-13 cells; compound at 10 μM): 99%
"Cc1nn2c(N3CCN(CCO)CC3)cc(-c3ccccc3)nc2c1-c1cccc(CCCN2CCN(C(=O)CNc3cccc4c(N5CCC(=O)NC5=O)nn(C)c34)CC2)c1 [Compound D16, 1-(7-((2-(4-(3-(3-(7-(4-(2-Hydroxyethyl)piperazin-1-yl)-2-methyl-5-phenyl-pyrazolo[1,5-a]pyrimidin-3-yl)phenyl)propyl)piperazin-1-yl)-2-oxoethyl)amino)-1-methyl-1H-indazol-3-yl)dihydropyrimidine-2,4(1H,3H)-dione]",C (a percentage degradation value of less than 25% and no less than 10%),–,–,–,C (a percentage degradation value of less than 25% and no less than 10%),D (a percentage degradation value of less than 10%),–,–,–,–,–,"Effect on KRAS Protein Degradation, HEK293, 5 μM (KRAS protein [1]): C (a percentage degradation value of less than 25% and no less than 10%)"
"Cc1nn2c(N3CCN(CCO)CC3)cc(-c3cccc(CCCCCN4CCN(C(=O)CNc5cccc(C6CCC(=O)NC6=O)c5)CC4)c3)nc2c1-c1ccccc1 (stereo not drawn) [Compound B5, 3-(3-((2-(4-(5-(3-(7-(4-(2-hydroxyethyl)piperazin-1-yl)-2-methyl-3-phenyl-pyrazolo[1,5-a]pyrimidin-5-yl)phenyl)pentyl)piperazin-1-yl)-2-oxoethyl)amino)phenyl)-piperidine-2,6-dione]",–,–,–,D (a percentage degradation value of less than 10%),–,–,0.52,0.83,0.45,0.31,0.42,"Effect on KRAS Protein Degradation, H647, 5 μM (KRAS protein [2]): A (a percentage degradation value of no less than 50%)"
"Cc1nn2c(N3CCN(CCO)CC3)cc(-c3ccccc3)nc2c1-c1cccc(CCCN2CCN(C(=O)COc3cccc4c(C5CCC(=O)NC5=O)nn(C)c34)CC2)c1 (stereo not drawn) [Compound D20, 3-(7-(2-(4-(3-(3-(7-(4-(2-Hydroxyethyl)piperazin-1-yl)-2-methyl-5-phenyl-pyrazolo[1,5-a]pyrimidin-3-yl)phenyl)propyl)piperazin-1-yl)-2-oxoethoxy)-1-methyl-1H-indazol-3-yl)piperidine-2,6-dione]",–,0,71,–,D (a percentage degradation value of less than 10%),C (a percentage degradation value of less than 25% and no less than 10%),–,–,–,–,–,"Effect on KRAS Protein Degradation, MIA PaCa-2, 3 μM (KRAS protein [4]; compound at 3 μM): C (a percentage degradation value of less than 25% and no less than 10%); Effect on KRAS Protein Degradation, MIA PaCa-2, 5 μM (KRAS protein [4]; compound at 5 μM): C (a percentage degradation value of less than 25% and no less than 10%)"
"Cc1nn2c(N3CCN(CCO)CC3)cc(-c3ccccc3)nc2c1-c1cccc(CCCCCCCN2CCN(C(=O)CNc3cccc4c(N5CCC(=O)NC5=O)nn(C)c34)CC2)c1 [Compound D18, 1-(7-((2-(4-(7-(3-(7-(4-(2-hydroxyethyl)piperazin-1-yl)-2-methyl-5-phenyl-pyrazolo[1,5-a]pyrimidin-3-yl)phenyl)heptyl)piperazin-1-yl)-2-oxoethyl)amino)-1-methyl-1H-indazol-3-yl)dihydropyrimidine-2,4(1H,3H)-dione]",–,14,95,D (a percentage degradation value of less than 10%),B (a percentage degradation value of less than 50% and no less than 25%),C (a percentage degradation value of less than 25% and no less than 10%),–,–,–,–,–,"Effect on KRAS Protein Degradation, H647, 5 μM (KRAS protein [2]): C (a percentage degradation value of less than 25% and no less than 10%)"
"Cc1nn2c(N3CCN(CCO)CC3)cc(-c3cccc(CCCCCCCN4CCN(C(=O)COc5cccc(N6CCC(=O)NC6=O)c5)CC4)c3)nc2c1-c1ccccc1 [Compound C2, 1-(3-(2-(4-(7-(3-(7-(4-(2-Hydroxyethyl)piperazin-1-yl)-2-methyl-3-phenyl-pyrazolo[1,5-a]pyrimidin-5-yl)phenyl)heptyl)piperazin-1-yl)-2-oxoethoxy)phenyl)dihydro-pyrimidine-2,4(1H,3H)-dione]",B (a percentage degradation value of less than 50% and no less than 25%),–,–,–,–,–,–,–,–,–,–,–
"Cc1nn2c(N3CCN(CCO)CC3)cc(-c3cccc(CCCCCN4CCN(C(=O)CNc5cccc6c(C7CCC(=O)NC7=O)nn(C)c56)CC4)c3)nc2c1-c1ccccc1 (stereo not drawn) [Compound D5, 3-(7-((2-(4-(5-(3-(7-(4-(2-hydroxyethyl)piperazin-1-yl)-2-methyl-3-phenyl-pyrazolo[1,5-a]pyrimidin-5-yl)phenyl)pentyl)piperazin-1-yl)-2-oxoethyl)amino)-1-methyl-1H-indazol-3-yl)piperidine-2,6-dione]",–,–,–,–,–,–,0.49,0.95,0.5,0.27,0.42,–
